#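 Assay format: 96-well plates, 48-hour exposure. The concentration for 50% growth inhibition is given as GI50.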 Calls of active or inactive are those of the source. Rule as the data show it: active = GI50 up to about 1.1 µM and inactive = higher.
# How the values were obtained:
# Assay in all cases: NCI-60 cell line screen, 48 h
# [1] = test system: A549
# [2] = test system: MDA-N
# [3] = test system: NCI-H460
# [4] = test system: Malme-3M
# [5] = test system: EKVX
# [6] = test system: MCF7
# [7] = test system: SF-295
# [8] = test system: HCT-116
# [9] = test system: CAKI-1
# [10] = test system: SF-268
# [11] = test system: ACHN
# [12] = test system: SK-MEL-5
# [13] = test system: SR
# [14] = test system: UACC-257
# [15] = test system: SF-539
# [16] = test system: NCI/ADR-RES
# [17] = test system: U-251
# [18] = test system: SW-620
# [19] = test system: T47D
Structure (SMILES),GI50 [1],GI50 [2],GI50 [3],GI50 [4],GI50 [5],GI50 [6],GI50 [7],GI50 [8],GI50 [9],GI50 [10],GI50 [11],GI50 [12],GI50 [13],GI50 [14],GI50 [15],GI50 [16],GI50 [17],GI50 [18],GI50 [19]
O=C(O)c1cc(CCc2cc(O)ccc2O)ccc1O,> 100 µM (inactive),14 µM (inactive),> 100 µM (inactive),> 100 µM (inactive),> 100 µM (inactive),> 100 µM (inactive),> 100 µM (inactive),> 100 µM (inactive),> 100 µM (inactive),> 100 µM (inactive),> 100 µM (inactive),> 100 µM (inactive),> 100 µM (inactive),> 100 µM (inactive),> 100 µM (inactive),> 100 µM (inactive),> 100 µM (inactive),39.2 µM (inactive),> 100 µM (inactive)
O=C(NCCCNC(=O)c1ccc2c(O)c(O)ccc2c1)c1ccc2c(O)c(O)ccc2c1,32.3 µM (inactive),19.1 µM (inactive),–,> 95.5 µM (inactive),32.4 µM (inactive),10.5 µM (inactive),19.2 µM (inactive),32.3 µM (inactive),> 63 µM (inactive),22.9 µM (inactive),24.2 µM (inactive),20.3 µM (inactive),15.1 µM (inactive),21.3 µM (inactive),28.1 µM (inactive),38.1 µM (inactive),24.1 µM (inactive),25.5 µM (inactive),> 100 µM (inactive)
CCCCCCCCCCCCCC(=O)N(CCCCCCCCC)CC(O)C(O)C(OC1OC(CO)C(O)C(O)C1O)C(O)CO (configuration not stated),22.3 µM (inactive),21.6 µM (inactive),20.1 µM (inactive),18.3 µM (inactive),18 µM (inactive),36.5 µM (inactive),20.7 µM (inactive),17.4 µM (inactive),16.9 µM (inactive),19.1 µM (inactive),15.8 µM (inactive),19.5 µM (inactive),25.6 µM (inactive),17.1 µM (inactive),22 µM (inactive),18.8 µM (inactive),22.5 µM (inactive),19.9 µM (inactive),19.1 µM (inactive)
CCC1(O)CC2CC(=O)OC2C1O (configuration not stated),> 100 µM (inactive),> 100 µM (inactive),> 100 µM (inactive),> 100 µM (inactive),> 100 µM (inactive),> 100 µM (inactive),> 100 µM (inactive),–,> 100 µM (inactive),> 100 µM (inactive),> 100 µM (inactive),> 100 µM (inactive),> 100 µM (inactive),> 100 µM (inactive),> 100 µM (inactive),> 100 µM (inactive),> 100 µM (inactive),> 100 µM (inactive),> 100 µM (inactive)
COc1ccc(/N=C(/SS/C(=N/c2ccc(OC)cc2)c2ccc([N+](=O)[O-])o2)c2ccc([N+](=O)[O-])o2)cc1,2.79 µM (inactive),2.07 µM (inactive),0.982 µM (active),2.02 µM (inactive),1.52 µM (inactive),0.51 µM (active),2.16 µM (inactive),1.18 µM (inactive),1.92 µM (inactive),1.89 µM (inactive),1.41 µM (inactive),5.75 µM (inactive),0.547 µM (active),2.06 µM (inactive),1.49 µM (inactive),1.39 µM (inactive),0.35 µM (active),0.35 µM (active),1.61 µM (inactive)
CC(=O)/C=C(/C=N/O)c1ccccc1,> 100 µM (inactive),> 100 µM (inactive),> 100 µM (inactive),> 100 µM (inactive),> 100 µM (inactive),> 100 µM (inactive),> 100 µM (inactive),> 100 µM (inactive),> 100 µM (inactive),> 100 µM (inactive),> 100 µM (inactive),> 100 µM (inactive),> 100 µM (inactive),> 100 µM (inactive),> 100 µM (inactive),> 100 µM (inactive),> 100 µM (inactive),> 100 µM (inactive),> 100 µM (inactive)
CCCC(=O)Nc1ccc2c(c1)CN1C(=O)c3ccccc3C1=N2,> 100 µM (inactive),> 100 µM (inactive),> 100 µM (inactive),> 100 µM (inactive),–,> 100 µM (inactive),69.5 µM (inactive),> 100 µM (inactive),> 100 µM (inactive),> 100 µM (inactive),> 100 µM (inactive),> 100 µM (inactive),> 100 µM (inactive),> 100 µM (inactive),> 100 µM (inactive),> 100 µM (inactive),> 100 µM (inactive),> 100 µM (inactive),> 100 µM (inactive)
Cc1c2c(c(C)n1-c1ccccc1)C(=O)N(CCCCN1CCN(c3ccccc3)CC1)C2=O,14.5 µM (inactive),9.57 µM (inactive),11.7 µM (inactive),4.03 µM (inactive),10 µM (inactive),9.42 µM (inactive),14.6 µM (inactive),7.71 µM (inactive),31.1 µM (inactive),37.8 µM (inactive),23.1 µM (inactive),3.7 µM (inactive),8.85 µM (inactive),5.36 µM (inactive),12 µM (inactive),17 µM (inactive),14.5 µM (inactive),18.9 µM (inactive),3.49 µM (inactive)
N#Cc1nc(CSCc2ccccc2)oc1N,> 100 µM (inactive),> 100 µM (inactive),> 100 µM (inactive),1.35 µM (inactive),–,> 100 µM (inactive),> 100 µM (inactive),> 100 µM (inactive),> 100 µM (inactive),> 100 µM (inactive),> 100 µM (inactive),–,> 100 µM (inactive),> 100 µM (inactive),> 100 µM (inactive),> 100 µM (inactive),> 100 µM (inactive),> 100 µM (inactive),> 100 µM (inactive)
COc1ccc2nc3ccc(OC)cc3c(SCC3CO3)c2c1 (configuration not stated),24.2 µM (inactive),15.8 µM (inactive),12 µM (inactive),14.1 µM (inactive),13.3 µM (inactive),11.2 µM (inactive),60.7 µM (inactive),10.5 µM (inactive),5.79 µM (inactive),13.2 µM (inactive),8.71 µM (inactive),15.8 µM (inactive),6.89 µM (inactive),15.5 µM (inactive),10.8 µM (inactive),17.1 µM (inactive),12.7 µM (inactive),11.1 µM (inactive),16.8 µM (inactive)
CC(=C/C=C/C=C(C)\C=C\C=C(\C)C(=O)O)/C=C/C=C(/C)C(=O)O,> 100 µM (inactive),> 100 µM (inactive),> 100 µM (inactive),> 100 µM (inactive),–,> 100 µM (inactive),> 100 µM (inactive),> 100 µM (inactive),> 100 µM (inactive),> 100 µM (inactive),> 100 µM (inactive),> 100 µM (inactive),> 100 µM (inactive),> 100 µM (inactive),> 100 µM (inactive),> 100 µM (inactive),> 100 µM (inactive),> 100 µM (inactive),> 100 µM (inactive)
Cc1cc2c3ccccc3[nH]c2c2ccnc(C)c12,8.28 µM (inactive),1.71 µM (inactive),2.35 µM (inactive),13.5 µM (inactive),1.49 µM (inactive),27.9 µM (inactive),20 µM (inactive),2.21 µM (inactive),19 µM (inactive),17.6 µM (inactive),15.7 µM (inactive),4.78 µM (inactive),6.62 µM (inactive),18.2 µM (inactive),2.76 µM (inactive),14.7 µM (inactive),2.24 µM (inactive),2.47 µM (inactive),16.7 µM (inactive)
O=C1N(CN2CCOCC2)CN(CN2CCOCC2)C(=O)N1Cc1ccc(CN2C(=O)N(CN3CCOCC3)CN(CN3CCOCC3)C2=O)cc1,40.2 µM (inactive),31.7 µM (inactive),36.9 µM (inactive),–,> 100 µM (inactive),38.9 µM (inactive),> 100 µM (inactive),33.6 µM (inactive),38.3 µM (inactive),28.4 µM (inactive),41.8 µM (inactive),> 100 µM (inactive),46.9 µM (inactive),52.2 µM (inactive),44.8 µM (inactive),49.9 µM (inactive),44.9 µM (inactive),43 µM (inactive),53 µM (inactive)
CCC(C)(C)c1ccc(OCCCCNC(=O)c2ccc3ccccc3c2O)c(C(C)(C)CC)c1,27.2 µM (inactive),35.6 µM (inactive),23.1 µM (inactive),11 µM (inactive),21.8 µM (inactive),28.3 µM (inactive),48.3 µM (inactive),17.6 µM (inactive),23 µM (inactive),22.7 µM (inactive),16 µM (inactive),19.3 µM (inactive),> 100 µM (inactive),28 µM (inactive),33.1 µM (inactive),25.4 µM (inactive),43 µM (inactive),18.3 µM (inactive),31 µM (inactive)
O=C(O)Cn1ccc(=O)c2cc([N+](=O)[O-])ccc21,> 100 µM (inactive),> 100 µM (inactive),> 100 µM (inactive),> 100 µM (inactive),–,> 100 µM (inactive),> 100 µM (inactive),> 100 µM (inactive),> 100 µM (inactive),> 100 µM (inactive),> 100 µM (inactive),> 100 µM (inactive),> 100 µM (inactive),> 100 µM (inactive),> 100 µM (inactive),> 100 µM (inactive),> 100 µM (inactive),> 100 µM (inactive),33.1 µM (inactive)

# Source: ChEMBL document CHEMBL1201862, “PubChem BioAssay data set” (2004)
